Results from the NIST ThermoML archive (doi:10.1016/j.tca.2015.03.023).

What was measured:
[1] = mn = molality of the nth substance listed, in mol/kg; conditions: 298.15 K, 100 kPa, Liquid; for molar conductivity: Alternating current cell with electrodes; for viscosity: Capillary tube (Ostwald / Ubbelohde) method; for speed of sound: Frequency=1 MHz, Linear variable-path acoustic interferometer; for mass density: Vibrating tube method
[2] = 298.15 K, Liquid

[Na+].[O-][Cl+3]([O-])([O-])[O-] [sodium perchlorate] + CNC=O
[1]
Conditions	mass density [kg/m3]	molar conductivity [S·m2/mol]	speed of sound [m/s]	viscosity [mPa·s]
m1 = 0.0001833	–	0.00113	–	–
m1 = 0.0002554	–	0.00111	–	–
m1 = 0.0003247	–	0.00109	–	–
m1 = 0.0003795	–	0.00107	–	–
m1 = 0.0004397	–	0.00105	–	–
m1 = 0.0005067	–	0.00103	–	–
m1 = 0.0005588	–	0.00101	–	–
m1 = 0.000621	–	0.00099	–	–
m1 = 0.0006765	–	0.000978	–	–
m1 = 0.0007431	–	0.000963	–	–
m1 = 0.0007846	–	0.000956	–	–
m1 = 0.000822	–	0.000947	–	–
m1 = 0.0008833	–	0.000925	–	–
m1 = 0.0009622	–	0.000906	–	–
m1 = 0.0145	999.72	–	1434.9	1.664
m1 = 0.0298	1000.43	–	1449.6	1.674
m1 = 0.0448	1001.19	–	1470.8	1.683
m1 = 0.0599	1001.99	–	1499.1	1.692
m1 = 0.0751	1002.84	–	1534.9	1.702
m1 = 0.0902	1003.73	–	1576.7	1.711

CNC=O [N-methylformamide] + [Na+].[O-][Cl+3]([O-])([O-])[O-]
[1], m2 = 0
Conditions	mass density [kg/m3]	speed of sound [m/s]	viscosity [mPa·s]
–	999.12	1430.3	1.653

CNC=O [N-methylformamide] + [K+].[O-][Cl+3]([O-])([O-])[O-]
[1], m2 = 0
Conditions	mass density [kg/m3]	speed of sound [m/s]	viscosity [mPa·s]
–	999.12	1430.3	1.653

CNC=O [N-methylformamide] + [Li+].[O-][Cl+3]([O-])([O-])[O-]
[1], m2 = 0
Conditions	mass density [kg/m3]	speed of sound [m/s]	viscosity [mPa·s]
–	999.12	1430.3	1.653

[Li+].[O-][Cl+3]([O-])([O-])[O-] [lithium perchlorate] + CNC=O
[1]
Conditions	mass density [kg/m3]	molar conductivity [S·m2/mol]	speed of sound [m/s]	viscosity [mPa·s]
m1 = 0.0001214	–	0.000939	–	–
m1 = 0.0001462	–	0.000926	–	–
m1 = 0.0001817	–	0.000907	–	–
m1 = 0.0002036	–	0.000895	–	–
m1 = 0.0002283	–	0.000879	–	–
m1 = 0.0002525	–	0.000875	–	–
m1 = 0.0002752	–	0.000854	–	–
m1 = 0.0003	–	0.000841	–	–
m1 = 0.0003244	–	0.000831	–	–
m1 = 0.0003557	–	0.000815	–	–
m1 = 0.0003756	–	0.000809	–	–
m1 = 0.0004004	–	0.000795	–	–
m1 = 0.0004406	–	0.000783	–	–
m1 = 0.0004687	–	0.000769	–	–
m1 = 0.015	999.44	–	1433.8	1.668
m1 = 0.0301	999.85	–	1447.3	1.682
m1 = 0.0452	1000.33	–	1468.1	1.696
m1 = 0.0603	1000.86	–	–	1.71
m1 = 0.0604	–	–	1494.8	–
m1 = 0.0755	1001.44	–	1529.4	1.725
m1 = 0.0907	1002.06	–	1569.9	1.738

CNC=O [N-methylformamide]
Conditions	speed of sound [m/s]
[2], 100 kPa, Frequency=1 MHz, Linear variable-path acoustic interferometer	1430.3

[2], 101.33 kPa
Conditions	mass density [kg/m3]	viscosity [mPa·s]
Capillary tube (Ostwald / Ubbelohde) method	–	1.653
Vibrating tube method	999.12	–

[K+].[O-][Cl+3]([O-])([O-])[O-] [potassium perchlorate] + CNC=O
[1]
Conditions	mass density [kg/m3]	molar conductivity [S·m2/mol]	speed of sound [m/s]	viscosity [mPa·s]
m1 = 0.0004439	–	0.00119	–	–
m1 = 0.0005285	–	0.00117	–	–
m1 = 0.0006265	–	0.00115	–	–
m1 = 0.0006838	–	0.00113	–	–
m1 = 0.000722	–	0.00113	–	–
m1 = 0.0007846	–	0.00112	–	–
m1 = 0.0008474	–	0.00112	–	–
m1 = 0.0009126	–	0.0011	–	–
m1 = 0.0009685	–	0.00109	–	–
m1 = 0.001057	–	0.00108	–	–
m1 = 0.001149	–	0.00106	–	–
m1 = 0.001216	–	0.00105	–	–
m1 = 0.00129	–	0.00103	–	–
m1 = 0.001359	–	0.00103	–	–
m1 = 0.0153	1000.04	–	1435.8	1.66
m1 = 0.0304	1001.02	–	1449.9	1.665
m1 = 0.0457	1002.07	–	1471.8	1.669
m1 = 0.0609	1003.15	–	1499.7	1.674
m1 = 0.0759	1004.25	–	1533.7	1.677
m1 = 0.0911	1005.39	–	1577.6	1.681
